The values that follow come from patent publication US9212144B2, “2-aminoquinoline-based compounds for potent and selective neuronal nitric oxide synthase inhibition” (priority 2014, dated 2015).

Values joined by “and” are separate entries in the source; they are usually repeats but may differ in a detail not shown here. Equal values may be shown once. Where a name gives a salt, the structure may show the parent alone. Read-outs that look alike come from different tables or passages of the source.

The subject of one data set is newborn rabbit kits. The settings on record: administered intravenously to the dam; cited from earlier work.
For another data set, the target named is rat nNOS (Rattus norvegicus (Rat), UniProt P29476). Briefly: Purified NOS enzyme assay (hemoglobin capture), rat nNOS. The data set is classed as biochemical.
A further data set deals with bovine eNOS (Bos taurus (Bovine), UniProt P29473). Briefly: Purified NOS enzyme assay (hemoglobin capture), bovine eNOS. The settings on record: for Ki: bovine eNOS, Ki calculated from IC50, average of at least two replicates; for Selectivity n/e: ratio of respective Ki values (eNOS/nNOS). The data set is classed as biochemical.
For another data set, the target named is murine macrophage iNOS (Mus musculus (Mouse), UniProt P29477). The settings on record: for Selectivity n/i: ratio of respective Ki values (iNOS/nNOS); for Ki: read-out: Ki iNOS, murine iNOS, Ki calculated from IC50, average of at least two replicates.
Another data set deals with human nNOS (Homo sapiens (Human), UniProt P29475). As to the kind of experiment: Purified NOS enzyme assay (hemoglobin capture), human nNOS. The data set is classed as biochemical.
A further data set relates to Caco-2 cells. Conditions: background statement on prior art compound; cited from earlier work.
[1] abbreviates: rat nNOS, Ki calculated from IC50, average of at least two replicates, read-out: Ki nNOS.

On to `Cc1cc(N)nc(C[C@@H]2CNC[C@@H]2NCCNCCc2cccc(F)c2)c1` [Compound 1], for which the “effect on hypoxic-ischemic brain damage phenotype” value with newborn rabbit kits is listed as “reverses a hypoxic-ischemic brain damage phenotype”.
On to `Cl.Cl.Nc1ccc2ccc(CCNCc3cccc(F)c3)cc2n1` [Compound 6, 7-[2-(3-Fluorobenzylamino)ethyl]quinolin-2-amine Dihydrochloride], for which the Ki at rat nNOS (setting [1]) was 0.254 µM; on bovine eNOS, 7.77 µM; at murine macrophage iNOS, 24.5 µM. Moreover, the Selectivity n/e on bovine eNOS turned out to be 30. For the same molecule, the Selectivity n/i at murine macrophage iNOS came out at 97.
Turning to `Nc1ccc2cc(CCNCc3cccc(F)c3)ccc2n1` [Compound 11, 6-[2-(3-Fluorobenzylamino)ethyl]quinolin-2-amine Dihydrochloride], the Ki at rat nNOS (setting [1]) is above 5.7 µM.
In the case of `Cl.Cl.Nc1ccc2ccc(CNCCCc3cccc(F)c3)cc2n1` [Compound 9, 7-{2-[3-(3-Fluorophenyl(propylamino)methyl]}quinolin-2-amine Dihydrochloride], the Ki at rat nNOS (setting [1]) was 0.06 µM; on bovine eNOS, 3.69 µM; on murine macrophage iNOS it was 32.3 µM.
`Cl.Cl.Nc1ccc2ccc(CCNCCc3ccc(F)cc3)cc2n1` [Compound 14, 7-[(4-Fluorophenethylamino)ethyl]quinolin-2-amine Dihydrochloride]: the Ki is 0.183 µM at rat nNOS (setting [1]), 8.86 µM at bovine eNOS and 51.2 µM at murine macrophage iNOS. Further, the Selectivity n/e at bovine eNOS was 37. For the same molecule, the Selectivity n/i on murine macrophage iNOS worked out at 280.
In the case of `Cl.Cl.Nc1ccc2ccc(CCNCCc3ccc(Cl)cc3)cc2n1` [Compound 16, 7-[(4-Chlorophenethylamino)ethyl]quinolin-2-amine Dihydrochloride], the Ki at rat nNOS (setting [1]) is 0.212 µM. On bovine eNOS, the Ki is 9.89 µM and the Selectivity n/e was 47. At murine macrophage iNOS, the Selectivity n/i is reported as 91 and the Ki was 19.2 µM.
`Nc1ccc2cc(CNCCc3cccc(F)c3)ccc2n1` [Compound 10, 6-[(3-Fluorophenethylamino)methyl]quinolin-2-amine Dihydrochloride]: the Ki on rat nNOS (setting [1]) was above 5.7 µM.
On to `Cl.Cl.Nc1ccc2ccc(CNCCCc3cccc(F)c3)cc2n1` [Compound 9], for which, on bovine eNOS, the Selectivity n/e is reported as 62. Besides, the Selectivity n/i on murine macrophage iNOS came out at 538.
Take `Cl.Cl.Nc1ccc2ccc(CNCCc3cccc(F)c3)cc2n1` [Compound 5, 7-[(3-Fluorophenethylamino)methyl]quinolin-2-amine Dihydrochloride]: the Ki is 0.074 µM on rat nNOS (purified nNOS, read-out: inhibition of nNOS); 0.075 µM and 0.074 µM on rat nNOS (rat nNOS, Ki calculated from IC50, average of at least two replicates, Dihydrochloride, read-out: Ki nNOS); 0.485 µM on bovine eNOS; 0.493 µM at human nNOS (human nNOS, Ki calculated from IC50, average of at least two replicates); 9.14 µM at murine macrophage iNOS. In addition, the “selectivity for nNOS over eNOS” value at bovine eNOS is “approximately 6 fold”. For the same molecule, the Selectivity n/e on bovine eNOS is on record as 6.2. Further, the “Selectivity (Rat/Human)” value at human nNOS (ratio of respective Ki values, Ki-human/Ki-rat) was 6.7. Further, the Selectivity n/i on murine macrophage iNOS is listed as 124.
`Nc1ccc2cc(CCNCCc3cccc(F)c3)ccc2n1` [Compound 12, 6-[(3-Fluorophenethylamino)ethyl]quinolin-2-amine Dihydrochloride]: the Ki at rat nNOS (setting [1]) was above 5.7 µM.
`[H]/N=C(/Nc1cccc(CNCCc2cccc(F)c2)c1)c1cccs1` [Compound 3]: the “Caco-2 permeability” value in the data set on Caco-2 cells is “poor”.
